{"source": "patent US6319678A", "about": "“Process for glucuronidation screening” (PanVera Corporation, priority 1999, dated 2001)", "key": {"[1]": {"target": "bacterial b-glucuronidase (Escherichia coli, UniProt P05804)", "sequence (P05804 whole entry)": "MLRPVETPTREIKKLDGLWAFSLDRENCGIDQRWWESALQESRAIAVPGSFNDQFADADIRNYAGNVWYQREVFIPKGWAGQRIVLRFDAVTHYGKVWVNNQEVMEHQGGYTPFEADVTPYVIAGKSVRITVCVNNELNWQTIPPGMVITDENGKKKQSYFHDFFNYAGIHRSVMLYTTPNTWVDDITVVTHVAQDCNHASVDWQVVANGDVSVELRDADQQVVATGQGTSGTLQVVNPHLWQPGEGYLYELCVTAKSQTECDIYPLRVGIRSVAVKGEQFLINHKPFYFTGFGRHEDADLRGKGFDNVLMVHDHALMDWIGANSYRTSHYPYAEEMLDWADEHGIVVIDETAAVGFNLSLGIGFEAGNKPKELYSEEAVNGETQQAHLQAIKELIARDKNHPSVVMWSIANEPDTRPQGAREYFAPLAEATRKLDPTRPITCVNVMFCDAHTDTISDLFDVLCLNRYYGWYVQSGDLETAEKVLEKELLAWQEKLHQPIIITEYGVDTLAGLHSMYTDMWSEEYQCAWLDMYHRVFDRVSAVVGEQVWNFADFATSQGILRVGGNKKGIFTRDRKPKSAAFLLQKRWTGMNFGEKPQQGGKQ", "assay": "Inhibition of b-glucuronidase cleavage of 4-methylumbelliferyl-b-D-glucuronide by competitor b-D-glucuronides (FIG. 2)", "type": "biochemical", "details": "20 μM 4-methylumbelliferyl-b-D-glucuronide, result in words", "protocol": "FIG. 1 Kinetic measurements of 4-methylumbelliferylb-D-glucuronide cleavage by b-gluuronidase. In part A, 100 μl assays were performed in triplicate using 100 mM Tris-HCl buffer, pH 7.4, containing 10 mM MgCl2, 0.1 μg/ml b-gluuronidase and 5 (.box-solid.), 20 (.tangle-solidup.), and 100 (.circle-solid.) μM, 4-methylumbelliferyl-b-D-glucuronide. Reactions were started by the addition of enzyme, incubated for indicated times at ambient temperature and then quenched with 100 μl of 0.1 M Na2 CO3, pH 9.5, containing 0.1% CHAPS. Fluorescence intensity was measured with a Beacon fluorescent polarization instrument (PanVera Corporation, Madison, Wis.) in intensity mode, using excitation and emission filters of 360 nm and 440 nm, respectively, and slit widths set at 10 nm. Part B, assays were performed in duplicate for 20 min as above with the indicated amount of 4-methylumbelliferyl-b-D-glucuronide. 4-Methyumbelliferone concentration was determined from a calibration curve.\nFIG. 2 Inhibition curves. Assays were performed as described in the legend to FIG. 1B with 20 .quadrature.M 4-methylumbelliferyl-b-D-glucuronide and the indicated amount of competitor b-D-glucuronide. Fluorescence intensity due to 4-methylumbelliferyl-b-D-glucuronide cleavage, in the absence of a competitor was arbitrarily assigned as 100%. Competitors, α-napthyl b-D-glucuronide (.box-solid.), .quadrature.-trifluoromethylumbelliferyl-b-D-glucuronide (o), .quadrature.-estradiol 3-.quadrature.b-D-glucuronide) (.tangle-solidup.), p-acetominophenyl b-D-glucuronide (.circle-solid.), 5.quadrature.-androstane-3α, 17α-diol-11-one-17-carboxylic acid-3-(b-D-glucuronide) (.tangle-soliddn.) and UDPGA (.E-backward.) were dissolved in 100 mM Tris-HCl, containing 10 mM MgCl2, pH 7.5. Tetrahydrocortisone 3-b-D-glucuronide (.diamond-solid.) was prepared in DMSO. The DMSO in reaction mixtures was 0.1% or less.\nAssay Principle: Cleavage of 4-methylumbelliferyl b-D-glucuronide by bacterial b-glucuronidase generates the highly fluorescent compound, 4-methylumbelliferone. Diverse b-D-glucuronides act as competitors of b-glucuronidase, thus providing the basis of a coupled assay method for detection of glucuronide production by recombinant UGT isozymes. […] The 4-methylumbelliferyl b-D-glucuronide cleavage assay can easily be adapted to high throughput formats to detect the presence of b-D glucuronides generated using recombinant glycosyl transferase preparations.\nMethods are included in text and figure legends. b-D-glucuronidase (Part G-7396), α-napthyl b-D-glucuronide, b-trifluoromethylumbelliferyl b-D-glucuronide, b-estradiol 3-(b-D-glucuronide), p-acetominophenyl b-D-glucuronide, 5 .quadrature.-androstane-3α, 17α-diol-11-one-17-carboxilic acid-3-(b-D-glucuronide), UDPGA and 4-methylumbelliferone b-D-glucuronide were obtained from Sigma, St. Louis Mo. Tetrahydrocortisone 3-b-D-glucuronide was obtained from Molecular Probes, Eugene, Oreg. Recombinant control and UGT1A6 membrane preparations were generated at PanVera Corporation and are commercially available from PanVera, Madison Wis. All other reagents were analytical grade or better and purchased from a variety of commercial sources.\nIn order to show the feasibility of developing a high throughput inhibition assay, we examined the potential of a variety of structurally dissimilar commercially available b-D-glucuronides to act as inhibitors for the cleavage of 4-methylumbelliferyl-b-D-glucuronide. […]"}, "recombinant human UGT1A6": {"target": "T1, recombinant human UGT1A6 (Homo sapiens, UniProt P19224)", "T1 sequence (P19224 27-532)": "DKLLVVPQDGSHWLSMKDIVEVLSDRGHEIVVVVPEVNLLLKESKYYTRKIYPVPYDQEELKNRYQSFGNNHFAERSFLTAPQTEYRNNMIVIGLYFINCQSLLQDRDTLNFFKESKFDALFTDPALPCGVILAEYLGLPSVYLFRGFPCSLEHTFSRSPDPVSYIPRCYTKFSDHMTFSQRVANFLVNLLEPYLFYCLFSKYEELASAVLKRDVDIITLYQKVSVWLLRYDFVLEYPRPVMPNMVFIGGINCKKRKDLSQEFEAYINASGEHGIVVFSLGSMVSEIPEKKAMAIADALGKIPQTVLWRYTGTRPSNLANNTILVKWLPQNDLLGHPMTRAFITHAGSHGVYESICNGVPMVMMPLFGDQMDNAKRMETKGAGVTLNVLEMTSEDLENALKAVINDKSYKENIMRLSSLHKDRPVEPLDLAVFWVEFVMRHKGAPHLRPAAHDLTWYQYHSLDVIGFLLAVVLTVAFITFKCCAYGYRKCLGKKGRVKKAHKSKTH", "assay": "Coupled assay: extracted residues of UGT1A6 / α-naphthol incubation added to b-glucuronidase fluorescence assay (FIG. 3A)", "type": "biochemical", "from_the_text": "All other reagents were analytical grade or better and purchased from a variety of commercial sources."}, "[2]": {"details": "background; cited from earlier work"}, "UGT1A6": {"tested_on": "UGT1A6", "assay": "Accumulation of naphthyl glucuronide in UGT1A6 assay using [14C] UDPGA", "type": "in vitro ADME, human", "details": "parallel experiment using [14C] UDPGA, data not shown", "protocol": "Two approaches were taken to test the feasibility of coupling the UGT-dependent production of glucuronides to inhibition of fluorescent product formation by b-D-glucuronidase. The first involved extracting the UGT reaction products and adding them to the b-D-glucuronidase fluorescence assay reagents; the second involved adding the b-D-glucuronidase reaction components directly to the quenched UGT reaction. In the first approach, α-naphthyl b-D-glucuronide was generated in an incubation with recombinant human UGT1A6 and α-naphthol. Following extraction, 4-methylumbelliferyl-b-D-glucuronide assay reagents were added to the extracted, dried reaction residues. […] Inhibition of 4-methylumbelliferyl-b-D-glucuronide cleavage was dependent on the incubation time of the UGT1A6 assay, presumably reflecting increased .quadrature.-naphthyl glucuronide accumulation."}, "UGT1A1": {"tested_on": "UGT1A1", "details": "as in patients with Gilbert's syndrome; background; cited from earlier work"}, "[3]": {"details": "background; cited from earlier work", "remark": "listed apart in the source"}}, "data": [{"compound": "O=C(O)[C@H]1O[C@H](OP(=O)(O)OP(=O)(O)OC[C@H]2O[C@@H](n3ccc(=O)[nH]c3=O)[C@H](O)[C@@H]2O)[C@H](O)[C@@H](O)[C@@H]1O", "note": "[Uridine 5'-diphosphoglucuronic acid]", "values": [{"measurement": "inhibition of 4-methylumbelliferyl-b-D-glucuronide cleavage (production of 4-methylumbelliferone) by b-glucuronidase", "setting": "[1]", "result": "not an effective competitor over the range tested"}]}, {"compound": "Oc1cccc2ccccc12", "note": "[α-naphthol]", "values": [{"measurement": "interference of aglycone with the 4-methylumbelliferyl-b-D-glucuronide cleavage assay", "setting": "recombinant human UGT1A6", "result": "does not interfere non-specifically"}]}, {"compound": "CN1CC[C@]23c4c5ccc(O[C@@H]6O[C@H](C(=O)O)[C@@H](O)[C@H](O)[C@H]6O)c4O[C@H]2[C@@H](O)C=C[C@H]3[C@H]1C5", "note": "[3-glucuronide]", "values": [{"measurement": "activity towards morphine", "setting": "[2]", "result": "morphine antagonist"}]}, {"compound": "O=C(O)[C@H]1O[C@@H](Oc2cccc3ccccc23)[C@H](O)[C@@H](O)[C@@H]1O", "note": "[α-naphthyl b-D-glucuronide]", "values": [{"measurement": "inhibition of 4-methylumbelliferyl-b-D-glucuronide cleavage (production of 4-methylumbelliferone) by b-glucuronidase", "setting": "[1]", "result": "weakest"}, {"measurement": "inhibition of 4-methylumbelliferyl-b-D-glucuronide cleavage (production of 4-methylumbelliferone) by b-glucuronidase", "setting": "[1]; listed as α-naphthol b-D-glucuronide", "result": "weak competitive inhibitor"}, {"measurement": "inhibition of 4-methylumbelliferyl-b-D-glucuronide cleavage by extracted residues of UGT1A6 assay", "setting": "recombinant human UGT1A6; FIG. 3A, 0.6 mg/ml UGT1A6, 2 mM UDPGA, 0.6 mM α-naphthol, 37° C, ethyl acetate extraction, vs control microsomes", "result": "inhibited 4-methylumbelliferyl-b-D-glucuronide cleavage"}, {"measurement": "accumulation of naphthyl glucuronide in the UGT1A6 assay", "setting": "UGT1A6", "result": "independently verified"}]}, {"compound": "CCc1c2c(nc3ccc(OC(=O)N4CCC(N5CCCCC5)CC4)cc13)-c1cc3c(c(=O)n1C2)COC(=O)[C@]3(O)CC", "note": "[Irinotecan]", "values": [{"measurement": "toxicity associated with low expression of UGT1A1", "setting": "UGT1A1", "result": "associated with the toxicity"}]}, {"compound": "C[C@]12CC[C@@H]3c4ccc(O[C@@H]5O[C@H](C(=O)O)[C@@H](O)[C@H](O)[C@H]5O)cc4CC[C@H]3[C@@H]1CC[C@@H]2O", "note": "[b-estradiol-3-(b-D-glucuronide), b-estradiol 3-(b-D-glucuronide)]", "values": [{"measurement": "inhibition of 4-methylumbelliferyl-b-D-glucuronide cleavage (production of 4-methylumbelliferone) by b-glucuronidase", "setting": "[1]", "result": "strongest"}, {"measurement": "inhibition of 4-methylumbelliferyl-b-D-glucuronide cleavage (production of 4-methylumbelliferone) by b-glucuronidase", "setting": "[1]; listed as estradiol b-D-glucuronide", "result": "More potent inhibitors"}]}, {"compound": "CN1CC[C@]23c4c5ccc(O)c4O[C@H]2[C@@H](O[C@@H]2O[C@H](C(=O)O)[C@@H](O)[C@H](O)[C@H]2O)C=C[C@H]3[C@H]1C5", "note": "[6-glucuronide of morphine]", "values": [{"measurement": "analgesic potency relative to the parent compound morphine", "setting": "[3]", "result": "more potent analgesic than the parent compound"}]}]}
